Reference: patent EP0223890B1, “Aryl derivatives of pyrrole, their obtention and their use in immunology” (Albert ROLLAND S.A. Société dite, priority 1985, dated 1987)

How the values were obtained:
[1] = test system: cellules spléniques de souris C57BL/6J; assay: rosette test in vitro (sheep red blood cells with mouse spleen cells); type: cell-based; details: for activité inhibitrice sur la formation des rosettes (comparison in words): compared with acide N-méthyl-4-(naphtoyl-1)-pyrrolyl-2-carboxylique; for activité immuno-stimulante (stimulation de la formation des rosettes): result in words
Description: A) Activité des composés selon l'invention sur le test des rosettes in vitro
L'étude a été réalisée sur globules rouges de mouton avec des cellules spléniques de souris C57BL/6J.

[2] = test system: transformation lymphoblastique; assay: lymphoblastic transformation test; type: cell-based; details: low concentration; vis-à-vis de la Concanavaline A and LPS (Lipopolysaccharides de E. Coli)
Experimental: B) Activité des composés selon l'invention sur le test de transformation lymphoblastique
Sur le test de transformation lymphoblastique, les composés selon l'invention montrent une activité antimitotique, aux doses allant de 5 à 50 µg/ml. […] La mise en évidence d'une activité immuno-stimulante pour certains de ces composés permet d'envisager une autre application thérapeutique.

| Structure (SMILES) | activité inhibitrice sur la formation des rosettes (comparison in words) [1] | activité stimulante à faible concentration [2] | activité immuno-stimulante (stimulation de la formation des rosettes) [1] |
| --- | --- | --- | --- |
| Cn1cc(C(=O)c2cc([S+](C)[O-])cc3ccccc23)cc1C(=O)O (centres unmarked) [Acide N-méthyl-4-(3-méthylsulfinylnaphtoyl-1)-pyrrolyl-2-carboxylique] | activité comparable à celle de l'acide N-méthyl-4-(naphtoyl-1 )-pyrrolyl-2-carboxylique | activité stimulante | – |
| Cn1cc(C(=O)c2cccc3c2C=CC(O)C3O)cc1C(=O)O (centres unmarked) [acide N-méthyl-4-(5,6-dihydroxy-5,6-dihydronaphtoyl-1)-pyrrolyl-2-carboxylique] | activité comparable à celle de l'acide N-méthyl-4-(naphtoyl-1 )-pyrrolyl-2-carboxylique | – | – |
| Cn1cc(C(=O)c2cccc3c(O)cccc23)cc1C(=O)O [dérivé N-méthyl-5-hydroxylé, Acide N-méthyl-4-(5-hydroxy-naphtoyl-1)-pyrrolyl-2-carboxylique] | inhibiteur à un degré identique | – | activité immuno-stimulante à faible concentration |
| O=C(O)c1cc(C(=O)c2cccc3ccccc23)c[nH]1 [acide 4-(naphtoyl-1)pyrrolyl-2-carboxylique] | activité inhibitrice du même ordre que celle du dérivé N-méthylé | activité stimulante | – |
| Cn1cc(C(=O)c2cc(O)cc3ccccc23)cc1C(=O)O [dérivé N-méthyl-(3-hydroxy-naphtoyl-1), Acide N-méthyl-4-(3-hydroxy-naphtoyl-1)-pyrrolyl-2-carboxylique] | – | – | stimuler la formation des rosettes |
